Measured values taken from ChEMBL document CHEMBL5465560, “Selectivity Literature for EUbOPEN Chemogenomic Library” (2024).

How the values were obtained:
[1] = Selectivity interaction (KinomeScan (DiscoverX)) EUB0000666a PKNB; settings: at 10 µM
[2] = molecular target: Tyrosine-protein kinase Lyn (Homo sapiens, UniProt P07948); assay: Selectivity interaction (Upstate Kinase Profiler service (Millipore)) EUB0000056c LYN; settings: at 1 µM
[3] = molecular target: SRSF protein kinase 2 (Homo sapiens) (UniProt P78362); assay: Selectivity interaction (Kinase panel (Invitrogen)) EUB0000639a SRPK2; settings: at 200 nM
SRSF protein kinase 2 (Homo sapiens), sequence (P78362 whole entry, looked up): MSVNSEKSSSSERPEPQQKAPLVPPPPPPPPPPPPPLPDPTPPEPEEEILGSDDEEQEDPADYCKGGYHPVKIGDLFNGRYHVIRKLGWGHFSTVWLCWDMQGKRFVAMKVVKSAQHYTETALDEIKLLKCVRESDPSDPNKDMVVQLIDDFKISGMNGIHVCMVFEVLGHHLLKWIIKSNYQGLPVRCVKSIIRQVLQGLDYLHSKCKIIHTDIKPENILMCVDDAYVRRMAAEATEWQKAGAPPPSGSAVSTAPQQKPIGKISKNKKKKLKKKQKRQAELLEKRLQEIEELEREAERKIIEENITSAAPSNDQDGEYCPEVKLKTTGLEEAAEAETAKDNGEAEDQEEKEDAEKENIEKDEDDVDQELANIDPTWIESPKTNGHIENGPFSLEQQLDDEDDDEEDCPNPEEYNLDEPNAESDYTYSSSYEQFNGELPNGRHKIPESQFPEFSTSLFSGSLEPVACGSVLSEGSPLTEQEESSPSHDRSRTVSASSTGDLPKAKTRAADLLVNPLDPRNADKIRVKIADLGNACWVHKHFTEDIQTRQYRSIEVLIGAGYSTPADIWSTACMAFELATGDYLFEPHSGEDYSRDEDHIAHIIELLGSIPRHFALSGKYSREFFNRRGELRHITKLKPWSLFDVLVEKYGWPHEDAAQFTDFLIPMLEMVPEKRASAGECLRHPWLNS

[4] = molecular target: RAC-beta serine/threonine-protein kinase (Homo sapiens) (UniProt P31751); assay: Selectivity interaction (Kinase panel (Invitrogen)) EUB0000639a AKT2; settings: at 200 nM
[5] = molecular target: Vascular endothelial growth factor receptor 1 (Homo sapiens) (UniProt P17948); assay: Selectivity interaction (Kinase panel (Invitrogen)) EUB0000639a FLT1; settings: at 200 nM
Vascular endothelial growth factor receptor 1 (Homo sapiens), sequence (P17948 whole entry, canonical isoform): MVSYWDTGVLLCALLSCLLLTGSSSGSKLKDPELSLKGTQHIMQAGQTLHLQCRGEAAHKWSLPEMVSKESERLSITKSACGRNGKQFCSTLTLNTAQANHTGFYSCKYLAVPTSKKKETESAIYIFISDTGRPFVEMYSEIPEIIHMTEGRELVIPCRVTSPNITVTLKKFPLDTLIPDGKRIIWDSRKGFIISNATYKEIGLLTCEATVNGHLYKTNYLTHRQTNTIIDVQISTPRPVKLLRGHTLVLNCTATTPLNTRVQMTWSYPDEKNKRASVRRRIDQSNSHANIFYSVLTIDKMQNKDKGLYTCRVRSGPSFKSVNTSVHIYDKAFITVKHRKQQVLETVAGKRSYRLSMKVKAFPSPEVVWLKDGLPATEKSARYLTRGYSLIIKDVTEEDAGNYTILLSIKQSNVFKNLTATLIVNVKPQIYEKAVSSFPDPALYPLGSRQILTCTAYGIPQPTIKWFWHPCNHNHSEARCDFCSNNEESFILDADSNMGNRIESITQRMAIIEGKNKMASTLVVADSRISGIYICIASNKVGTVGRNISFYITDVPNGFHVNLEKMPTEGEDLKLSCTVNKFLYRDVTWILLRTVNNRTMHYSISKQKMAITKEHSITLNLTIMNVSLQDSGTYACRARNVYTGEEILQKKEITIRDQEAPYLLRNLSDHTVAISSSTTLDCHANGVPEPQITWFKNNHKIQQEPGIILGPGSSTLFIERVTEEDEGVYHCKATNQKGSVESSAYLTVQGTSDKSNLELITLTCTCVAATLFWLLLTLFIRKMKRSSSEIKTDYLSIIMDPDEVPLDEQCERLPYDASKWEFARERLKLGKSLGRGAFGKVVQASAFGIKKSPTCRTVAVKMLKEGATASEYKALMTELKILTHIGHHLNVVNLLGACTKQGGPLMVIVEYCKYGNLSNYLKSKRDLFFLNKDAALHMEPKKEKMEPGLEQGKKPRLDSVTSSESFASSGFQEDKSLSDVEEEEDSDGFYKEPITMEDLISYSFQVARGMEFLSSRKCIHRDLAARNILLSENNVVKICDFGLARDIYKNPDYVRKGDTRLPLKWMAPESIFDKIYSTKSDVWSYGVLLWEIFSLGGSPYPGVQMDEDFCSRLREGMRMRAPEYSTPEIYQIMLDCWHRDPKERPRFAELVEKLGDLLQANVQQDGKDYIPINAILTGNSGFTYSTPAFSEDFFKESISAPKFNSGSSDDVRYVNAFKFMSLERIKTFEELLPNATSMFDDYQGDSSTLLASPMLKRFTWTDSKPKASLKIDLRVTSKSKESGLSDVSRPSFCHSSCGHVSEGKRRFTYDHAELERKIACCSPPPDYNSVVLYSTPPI

[6] = molecular target: T1, Phosphorylase b kinase gamma catalytic chain, liver/testis isoform (Homo sapiens) (UniProt P15735); assay: Selectivity interaction (ProQinase) EUB0000171b PHKG2
T1 sequence (whole entry): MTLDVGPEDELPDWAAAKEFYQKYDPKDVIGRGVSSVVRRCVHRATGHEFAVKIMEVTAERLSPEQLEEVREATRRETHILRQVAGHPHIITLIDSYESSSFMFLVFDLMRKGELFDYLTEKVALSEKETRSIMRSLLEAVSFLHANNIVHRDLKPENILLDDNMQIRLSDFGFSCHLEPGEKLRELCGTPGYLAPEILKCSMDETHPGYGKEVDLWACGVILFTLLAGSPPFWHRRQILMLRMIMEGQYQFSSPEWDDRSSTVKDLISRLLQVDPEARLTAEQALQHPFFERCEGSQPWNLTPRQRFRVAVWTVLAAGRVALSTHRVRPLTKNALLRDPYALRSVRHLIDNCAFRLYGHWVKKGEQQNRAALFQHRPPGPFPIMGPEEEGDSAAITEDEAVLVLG

[7] = molecular target: STE20-like serine/threonine-protein kinase (Homo sapiens, UniProt Q9H2G2); assay: Selectivity interaction (Kinase panel (DSF assay)) EUB0001558a SLK
STE20-like serine/threonine-protein kinase, sequence (Q9H2G2 whole entry, looked up): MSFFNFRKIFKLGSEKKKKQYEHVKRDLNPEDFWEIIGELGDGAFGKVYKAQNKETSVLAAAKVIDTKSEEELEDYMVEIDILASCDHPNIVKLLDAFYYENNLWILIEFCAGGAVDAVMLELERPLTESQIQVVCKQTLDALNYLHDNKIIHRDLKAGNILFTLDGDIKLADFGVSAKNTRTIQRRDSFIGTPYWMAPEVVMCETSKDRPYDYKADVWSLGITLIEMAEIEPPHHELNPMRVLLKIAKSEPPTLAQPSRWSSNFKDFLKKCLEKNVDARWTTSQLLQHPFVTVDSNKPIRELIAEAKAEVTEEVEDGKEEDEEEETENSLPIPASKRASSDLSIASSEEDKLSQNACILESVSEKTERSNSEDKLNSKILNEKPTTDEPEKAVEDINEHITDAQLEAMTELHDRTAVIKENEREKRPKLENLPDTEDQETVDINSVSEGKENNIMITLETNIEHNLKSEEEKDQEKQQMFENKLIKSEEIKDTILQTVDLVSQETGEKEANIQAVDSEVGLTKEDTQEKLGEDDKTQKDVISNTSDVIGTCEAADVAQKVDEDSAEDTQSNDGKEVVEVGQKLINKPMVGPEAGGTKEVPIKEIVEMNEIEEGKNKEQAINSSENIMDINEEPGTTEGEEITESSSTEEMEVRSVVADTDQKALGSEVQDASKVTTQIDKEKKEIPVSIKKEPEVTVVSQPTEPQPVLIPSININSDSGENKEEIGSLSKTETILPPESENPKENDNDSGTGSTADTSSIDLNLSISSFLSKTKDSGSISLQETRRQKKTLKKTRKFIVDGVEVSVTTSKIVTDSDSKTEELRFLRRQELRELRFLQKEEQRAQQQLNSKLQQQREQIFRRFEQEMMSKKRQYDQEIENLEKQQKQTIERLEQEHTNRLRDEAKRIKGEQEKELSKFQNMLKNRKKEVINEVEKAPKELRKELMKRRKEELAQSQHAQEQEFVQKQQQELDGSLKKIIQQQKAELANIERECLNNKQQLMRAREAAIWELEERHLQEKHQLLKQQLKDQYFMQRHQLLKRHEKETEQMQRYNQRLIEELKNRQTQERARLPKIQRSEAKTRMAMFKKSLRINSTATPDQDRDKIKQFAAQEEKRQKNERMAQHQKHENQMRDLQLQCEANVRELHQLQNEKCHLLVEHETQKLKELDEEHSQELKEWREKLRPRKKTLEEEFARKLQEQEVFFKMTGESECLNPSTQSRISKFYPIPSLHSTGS

[8] = molecular target: Protein kinase C delta type (Homo sapiens) (UniProt Q05655); assay: Selectivity interaction (KinomeScan (DiscoverX)) EUB0001079a PRKCD; settings: at 1 µM
[9] = molecular target: T2, Serine/threonine-protein kinase Chk1 (Homo sapiens) (UniProt O14757); assay: Selectivity interaction (Kinase panel (KiNativ target engagement assay in Jurkat cells)) EUB0001635a CHEK1; format: cell-based; settings: at 1 µM
T2 sequence (whole entry): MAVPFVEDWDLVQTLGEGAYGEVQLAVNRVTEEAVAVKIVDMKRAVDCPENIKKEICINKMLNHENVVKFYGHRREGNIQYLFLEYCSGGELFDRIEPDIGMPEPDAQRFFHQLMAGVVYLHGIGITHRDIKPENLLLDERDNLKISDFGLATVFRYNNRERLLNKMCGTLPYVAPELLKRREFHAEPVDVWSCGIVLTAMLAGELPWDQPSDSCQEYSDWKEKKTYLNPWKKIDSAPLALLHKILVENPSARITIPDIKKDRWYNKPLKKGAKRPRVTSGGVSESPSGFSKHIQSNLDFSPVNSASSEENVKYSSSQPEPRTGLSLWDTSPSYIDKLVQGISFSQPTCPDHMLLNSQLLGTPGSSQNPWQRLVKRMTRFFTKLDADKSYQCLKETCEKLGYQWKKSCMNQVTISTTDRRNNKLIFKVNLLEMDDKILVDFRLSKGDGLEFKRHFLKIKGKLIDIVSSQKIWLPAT

[10] = molecular target: Interleukin-1 receptor-associated kinase 1 (Homo sapiens) (UniProt P51617); settings: at 10 µM
[11] = molecular target: Dual specificity protein kinase CLK3 (Homo sapiens, UniProt P49761); assay: Selectivity interaction (KinomeScan (DiscoverX)) EUB0000618a CLK3; settings: at 10 µM
Dual specificity protein kinase CLK3, sequence (P49761 whole entry, looked up): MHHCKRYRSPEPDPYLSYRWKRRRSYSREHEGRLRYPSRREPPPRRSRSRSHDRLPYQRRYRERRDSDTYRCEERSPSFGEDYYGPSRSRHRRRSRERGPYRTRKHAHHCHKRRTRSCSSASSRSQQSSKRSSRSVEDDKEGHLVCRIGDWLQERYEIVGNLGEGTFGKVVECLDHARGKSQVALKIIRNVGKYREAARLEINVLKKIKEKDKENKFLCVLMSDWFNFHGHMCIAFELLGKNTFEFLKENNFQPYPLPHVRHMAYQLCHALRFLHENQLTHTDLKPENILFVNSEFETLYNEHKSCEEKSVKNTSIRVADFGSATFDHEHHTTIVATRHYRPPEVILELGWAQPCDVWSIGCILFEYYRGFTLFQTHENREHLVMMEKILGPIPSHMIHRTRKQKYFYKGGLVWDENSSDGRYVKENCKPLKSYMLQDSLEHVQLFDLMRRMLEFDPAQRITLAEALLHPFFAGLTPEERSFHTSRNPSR

[12] = molecular target: Ribosomal protein S6 kinase alpha-1 (Homo sapiens, UniProt Q15418); assay: Selectivity interaction (KinomeScan (DiscoverX)) EUB0001619a RPS6KA1; settings: at 1 µM
Ribosomal protein S6 kinase alpha-1, sequence (Q15418 whole entry): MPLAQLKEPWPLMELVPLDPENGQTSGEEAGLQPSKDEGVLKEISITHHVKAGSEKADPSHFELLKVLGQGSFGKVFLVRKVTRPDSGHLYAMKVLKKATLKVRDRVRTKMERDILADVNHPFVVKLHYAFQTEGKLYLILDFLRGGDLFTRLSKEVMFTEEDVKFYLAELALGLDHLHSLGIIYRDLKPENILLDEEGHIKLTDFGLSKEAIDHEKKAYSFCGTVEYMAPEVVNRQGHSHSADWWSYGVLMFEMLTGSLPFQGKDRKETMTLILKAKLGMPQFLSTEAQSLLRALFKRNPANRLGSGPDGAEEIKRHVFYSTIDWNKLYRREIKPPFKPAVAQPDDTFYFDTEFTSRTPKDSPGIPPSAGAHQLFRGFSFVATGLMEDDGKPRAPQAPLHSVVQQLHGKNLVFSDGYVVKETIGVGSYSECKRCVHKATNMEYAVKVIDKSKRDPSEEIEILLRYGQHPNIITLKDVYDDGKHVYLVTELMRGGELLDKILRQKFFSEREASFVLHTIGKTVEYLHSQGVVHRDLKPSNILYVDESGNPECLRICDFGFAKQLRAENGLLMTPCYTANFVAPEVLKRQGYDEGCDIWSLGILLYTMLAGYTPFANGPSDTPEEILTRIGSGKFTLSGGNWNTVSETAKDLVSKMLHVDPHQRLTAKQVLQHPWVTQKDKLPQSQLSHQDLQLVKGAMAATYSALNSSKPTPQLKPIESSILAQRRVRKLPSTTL

[13] = molecular target: T3, Serine/threonine-protein kinase tousled-like 1 (Homo sapiens) (UniProt Q9UKI8); assay: Selectivity interaction (KinomeScan (DiscoverX)) EUB0001619a TLK1; settings: at 1 µM
T3 sequence (whole entry): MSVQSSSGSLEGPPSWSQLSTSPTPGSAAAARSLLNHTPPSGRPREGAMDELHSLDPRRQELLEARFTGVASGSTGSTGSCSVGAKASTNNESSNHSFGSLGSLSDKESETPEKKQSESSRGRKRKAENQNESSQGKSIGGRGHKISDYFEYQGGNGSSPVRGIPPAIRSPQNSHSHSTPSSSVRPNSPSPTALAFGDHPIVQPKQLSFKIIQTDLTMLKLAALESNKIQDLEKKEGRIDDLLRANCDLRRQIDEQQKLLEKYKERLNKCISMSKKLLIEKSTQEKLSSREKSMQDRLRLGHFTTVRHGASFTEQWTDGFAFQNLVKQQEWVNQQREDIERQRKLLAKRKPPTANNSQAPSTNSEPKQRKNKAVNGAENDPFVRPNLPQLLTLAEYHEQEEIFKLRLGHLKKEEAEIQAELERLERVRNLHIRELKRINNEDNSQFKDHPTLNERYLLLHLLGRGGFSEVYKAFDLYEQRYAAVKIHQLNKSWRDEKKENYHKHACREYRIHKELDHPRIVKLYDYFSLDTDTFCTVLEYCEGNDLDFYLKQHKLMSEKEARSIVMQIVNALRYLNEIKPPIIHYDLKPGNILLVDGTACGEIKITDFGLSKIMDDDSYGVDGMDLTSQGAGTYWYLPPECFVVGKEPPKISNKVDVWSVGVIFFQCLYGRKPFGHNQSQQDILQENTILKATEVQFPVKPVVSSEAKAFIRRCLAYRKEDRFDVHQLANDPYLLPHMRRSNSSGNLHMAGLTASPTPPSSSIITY

Tyrosine-protein kinase Lyn, sequence (P07948 2-512 limits assumed): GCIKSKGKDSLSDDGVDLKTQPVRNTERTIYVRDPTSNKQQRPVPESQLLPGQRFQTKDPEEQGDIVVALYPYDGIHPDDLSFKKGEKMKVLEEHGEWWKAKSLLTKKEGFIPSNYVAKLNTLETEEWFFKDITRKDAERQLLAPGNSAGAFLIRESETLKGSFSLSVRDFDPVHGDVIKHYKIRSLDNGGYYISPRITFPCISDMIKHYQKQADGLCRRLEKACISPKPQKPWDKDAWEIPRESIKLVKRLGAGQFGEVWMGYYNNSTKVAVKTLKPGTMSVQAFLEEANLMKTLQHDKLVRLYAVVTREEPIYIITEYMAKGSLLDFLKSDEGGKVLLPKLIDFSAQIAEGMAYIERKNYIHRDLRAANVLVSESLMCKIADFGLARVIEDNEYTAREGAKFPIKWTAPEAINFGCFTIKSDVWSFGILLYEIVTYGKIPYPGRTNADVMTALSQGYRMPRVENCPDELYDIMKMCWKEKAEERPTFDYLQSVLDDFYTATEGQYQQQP

O=C(NOC[C@H](O)CO)c1ccc(F)c(F)c1Nc1ccc(I)cc1F
% of control [1]: 91%

Cc1ccc(-c2ccc3c(ccc4sc5c(c43)NC[C@@H](C)NC5=O)n2)cn1
% of inhibition [2]: 8%

CC[C@@H]1[C@H](F)C(=O)N[C@@H]1COc1nccc2cc(C(N)=O)c(OC)cc12 [ZIMLOVISERTIB]
% of inhibition [3]: -1.85% | % of inhibition [4]: 4.03% | % of inhibition [5]: 3.08%

C=CC(=O)Nc1cccc(C(=O)Nc2ccc(Nc3cc(-c4[nH]c(SC)nc4C)ccn3)cc2)c1
% of control ([6]; at 1 µM): 94% | % of control ([6]; at 5 µM): 96%

CC(C)(O)[C@H](F)CN1Cc2cc(NC(=O)c3cnn4cccnc34)c(N3CCOCC3)cc2C1=O
dTM [7]: 1.7 K

Nc1cnc(N2CCc3cc(S(=O)(=O)Nc4c(F)cc(Cl)cc4F)cc(N4CCCC4=O)c32)nc1 [TP-020n]
% of control [8]: 86%

C=CC(=O)Nc1ccc(C(=O)Nc2[nH]nc3c2CN(C(=O)N[C@H](CN(C)C)c2ccccc2)C3(C)C)cc1
% of engagement ([9]; Selectivity number of off-targets 0.0, Selectivity number of targets 233.0, Source Knowledge https://www.sciencedirect.com/science/article/pii/S2451945619300674?via%3Dihub): 5.4% | % of engagement [9]: 16.4%

Cc1cc([C@@H](C)Nc2ccccc2C(=O)O)c2nc(N3CCOCC3)cc(=O)n2c1 [AZD-6482]
% of control [10]: 90%

O[C@H]1CC[C@H](Nc2ncc3nc(Nc4c(F)cc(F)cc4F)n([C@H]4CCOC4)c3n2)CC1
% of control [11]: 93%

N#Cc1cccc(-c2c[nH]c3ncnc(N4CCOCC4)c23)c1
% of control [12]: 100% | % of control [13]: 99%
